Read-outs that look alike come from different tables or passages of the source.
Columns and labels:
Human DP1 receptor = Human DP1 receptor (Homo sapiens (Human), UniProt Q13258); assay: Human DP1 inhibitory activity in DP1-expressing cell (PGD2-induced cAMP); assay type: cell-based; conditions: category of cAMP IC50, human DP1 receptor expressing Jurkut cell
Procedure: Compounds were categorized as AA (cAMP is less than 100 nM) and A (cAMP is more than 100 nM and less than 5000 nM) as shown in Table 99 and 100.

CRTH2 = CRTH2 (Homo sapiens (Human), UniProt Q9Y5Y4); assay: CRTH2 receptor binding inhibitory activity ([3H]-PGD2 displacement, membranes of CRTH2-expressing K562 cell); conditions: [3H]-PGD2 displacement, membrane of CRTH2-expressing K562 cell, read-out: Ki
Procedure: Cell membrane was prepared from CRTH2-expressing K562 cell. The cell membrane (20 μg/well) was mixed with reaction buffer (50 mM Tris/HCl, pH 7.4, 10 mM MgCl2). Then, [^3H]-PGD2 was added to the mixture and incubated for 60 min at room temperature. […] Then, the mixture was filtrated with glass paper immediately. The filter paper was washed several times and radio activity on the filter was measured. Specific binding was defined as difference between total and non-specific binding (radio activity with 10 μM PGD2). Ki values for each compound were calculated from displacement curve.

[1] = CRTH2 receptor binding, categorized AAAA/AAA

Chain of CRTH2 (Q9Y5Y4 whole entry): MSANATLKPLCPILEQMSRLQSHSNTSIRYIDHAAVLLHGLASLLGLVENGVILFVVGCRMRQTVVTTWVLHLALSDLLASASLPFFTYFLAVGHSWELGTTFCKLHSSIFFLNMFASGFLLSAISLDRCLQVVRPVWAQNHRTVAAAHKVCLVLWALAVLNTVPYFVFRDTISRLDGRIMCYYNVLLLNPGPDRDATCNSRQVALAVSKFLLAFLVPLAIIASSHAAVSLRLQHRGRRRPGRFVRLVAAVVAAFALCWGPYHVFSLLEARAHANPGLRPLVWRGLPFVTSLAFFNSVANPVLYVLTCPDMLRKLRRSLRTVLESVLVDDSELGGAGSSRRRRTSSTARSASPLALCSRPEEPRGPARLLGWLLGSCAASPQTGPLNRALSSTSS
Chain of Human DP1 receptor (Q13258 whole entry): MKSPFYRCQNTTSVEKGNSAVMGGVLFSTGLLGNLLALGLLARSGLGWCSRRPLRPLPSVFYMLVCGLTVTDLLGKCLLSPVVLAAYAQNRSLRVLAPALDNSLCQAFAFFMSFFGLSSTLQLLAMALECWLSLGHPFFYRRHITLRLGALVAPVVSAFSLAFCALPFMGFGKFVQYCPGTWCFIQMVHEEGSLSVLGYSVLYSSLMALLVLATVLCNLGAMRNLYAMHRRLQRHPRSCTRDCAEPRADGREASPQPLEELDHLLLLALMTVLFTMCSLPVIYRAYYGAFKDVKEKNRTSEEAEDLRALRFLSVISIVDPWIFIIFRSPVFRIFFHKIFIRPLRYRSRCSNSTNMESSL

SMILES | IC50 (Human DP1 receptor) | Ki (CRTH2; [1]) | Ki (CRTH2)
CC(C)Oc1ccc(S(=O)(=O)N2C[C@@H](C)[C@@H](n3nc(CCC(=O)O)c4ccc(F)cc43)C2)cc1 [Compound I-101] | 100 to 5000 nM | 100 to 5000 nM | 
CCOc1ccc(S(=O)(=O)N2C[C@@H](C)[C@@H](n3nc(CC4=NNC(=O)C4)c4ccccc43)C2)cc1 [Compound I-297] | 100 to 5000 nM | 100 to 5000 nM | 
Cc1ccc2c(CC(=O)O)nn([C@H]3CN(S(=O)(=O)c4ccc(OC(C)C)cc4)C[C@H]3C)c2c1 [Compound I-63] | < 100 nM |  | 3.1 nM
CCOc1ccc(S(=O)(=O)N2C[C@@H](C)[C@@H](n3nc(CC(=O)NO)c4ccccc43)C2)cc1 [Compound I-311] | 100 to 5000 nM | 100 to 5000 nM | 
C[C@@H]1CN(S(=O)(=O)c2ccc(OCCOc3ccccc3)cc2)C[C@@H]1n1nc(CC(=O)O)c2ccccc21 [Compound I-192] | 100 to 5000 nM | < 100 nM | 
CC(C)Oc1ccc(S(=O)(=O)N2C[C@H](n3nc(CC(=O)O)c4ccc(Cl)cc43)C[C@@H]2C)cc1 [Compound I-95] | < 100 nM | < 100 nM | 
CC(C)Oc1ccc(S(=O)(=O)N2C[C@H](C)[C@@H](n3nc(CC(=O)O)c4cccc(F)c43)C2)cc1 [Compound I-70] |  | < 100 nM | 
CCOc1ccc(S(=O)(=O)N2C[C@@H](n3nc(CC(=O)O)c4ccc(F)cc43)[C@@H](C)[C@@H]2C#N)cc1 [Compound I-155] | 100 to 5000 nM | 100 to 5000 nM | 
CCOc1ccc(S(=O)(=O)N2C[C@@H](C)[C@@H](n3nc(CC(=O)O)c4ccccc43)C2)c([N+](=O)[O-])c1 [Compound I-324] | < 100 nM | < 100 nM | 
CC[C@H]1C[C@@H](n2nc(CC(=O)O)c3ccc(F)cc32)CN1S(=O)(=O)c1ccc(OC(C)C)cc1 [Compound I-103] | < 100 nM | < 100 nM | 
CCOc1ccc(S(=O)(=O)N2C[C@@H](C)[C@@H](n3cc(CC(=O)O)c4ccc(-c5ncco5)cc43)C2)cc1 [Compound I-282] | 100 to 5000 nM | < 100 nM | 10 nM
CC(C)Oc1ccc(S(=O)(=O)N2C[C@H](n3nc(CC(=O)O)c4ccc(F)cc43)C[C@@H]2COc2ccccc2F)cc1 [Compound I-340] | 100 to 5000 nM |  | 
CCOc1ccc(S(=O)(=O)N2C[C@@H](n3nc(CC(=O)O)c4ccc(F)cc43)[C@@H](C)[C@@H]2C(N)=O)cc1 [Compound I-154] | 100 to 5000 nM |  | 
CCOc1ccc(S(=O)(=O)N2C[C@@H](C)[C@@H](n3nc(CC(=O)OC(C)C)c4ccccc43)C2)cc1 [Compound I-257] | 100 to 5000 nM |  | 
CCOc1ccc(S(=O)(=O)N2C[C@@H](n3nc(CC(=O)O)c4ccccc43)[C@@H]3COC[C@@H]32)cc1 [Compound I-367] |  | 100 to 5000 nM | 100 nM
CCOc1ccc(S(=O)(=O)N2C[C@H](n3nc(CC(=O)O)c4ccccc43)[C@@](C)(F)C2)cc1 [Compound I-309] | < 100 nM |  | 
Cc1ccc2c(CC(=O)O)nn([C@H]3CN(S(=O)(=O)c4ccc(OC(C)C)cc4)C[C@@]3(C)F)c2c1 [Compound I-89] | < 100 nM |  | 
CC(C)Oc1ccc(S(=O)(=O)N2C[C@@H](C)[C@@H](n3nc(CC(=O)O)c4ccc(Cl)cc43)C2)cc1 [Compound I-33] |  |  | 2.1 nM
CC(C)Oc1ccc(S(=O)(=O)N2C[C@H](n3nc(CC(=O)O)c4ccc(F)cc43)C[C@@H]2COc2ccccn2)cc1 [Compound I-339] | 100 to 5000 nM |  | 
CCOc1ccc(S(=O)(=O)N2C[C@@H](C)[C@@H](n3nc(C(F)C(=O)O)c4ccccc43)C2)cc1 (stereo partly drawn) [Compound I-337] | 100 to 5000 nM |  | 
CCOc1ccc(S(=O)(=O)N2C[C@@H](C)[C@@H](n3nc(C(C)(OC)C(=O)O)c4ccccc43)C2)cc1 (stereo partly drawn) [Compound I-286] | < 100 nM |  | 
CCOc1ccc(S(=O)(=O)N2C[C@@H](C)[C@@H](n3nc(C(C)(C)C(=O)O)c4ccccc43)C2)cc1 [Compound I-335] | < 100 nM |  | 
CC(C)Oc1ccc(S(=O)(=O)N2C[C@H](n3nc(CC(=O)O)c4ccc(F)cc43)C[C@@H]2COCC(O)CO)cc1 (stereo partly drawn) [Compound I-281] | 100 to 5000 nM |  | 
CCOc1ccc(S(=O)(=O)N2C[C@H](n3nc(CC(=O)O)c4ccccc43)C[C@H]2C(N)=O)cc1 [Compound I-321] | 100 to 5000 nM |  | 

— patent US9725442B2, “Heterocyclic derivative having PGD2 receptor antagonist activity” (Shionogi & Co., Ltd., priority 2011, dated 2017)
